Patent EP0992240A1, “THERAPEUTIC AGENT FOR ERECTION FAILURE” (MOCHIDA PHARMACEUTICAL CO., LTD., priority 1997, dated 1998)

What was measured:
PDE type V = biological target: T1, PDE type V (Canis lupus familiaris, UniProt O77746); test: PDE inhibiting activity, type V; assay type: biochemical, dog; settings: PDE purified from canine aorta; 1 µM substrate cGMP or cAMP; read-out: Inhibition Activity IC50 (µM) Type V
T1 construct: By elution with a sodium chloride gradient (0 - 0.4 M), PDE types V and III were separated from the other isozymes; from tissue; host or cells: canine aorta

PDE type I = test: PDE inhibiting activity, type I; assay type: biochemical, dog; settings: PDE purified from canine aorta; 1 µM substrate cGMP or cAMP; read-out: Inhibition Activity IC50 (µM) Type I
Description: On the basis of the method of Lugnier et al. (Biochem. Pharmacol., 35, 1743-1751, 1986), PDE was purified from the aorta in a dog. The canine aorta was minced and homogenized with a Waring Blender and a glass homogenizer in six volumes of a Tris-HCl buffer solution (pH 7.5, 20 mM) containing 2 mM magnesium acetate, 5 mM ethylenediaminetetraacetic acid (EDTA), 100 µg/mL of phenylmethylsulforyl fluoride and 15 mM 2-mercaptoethanol (2-ME), and centrifuged at 1200 x g for 30 min. The supernatant was separated and salted out with ammonium sulfate which was added to 45% saturation. The resulting precipitated fraction was resuspended in a Tris-HCl buffer solution (pH 7.5, 20 mM) containing 2 mM magnesium acetate and 1 mM 2-ME, dialyzed overnight and applied to a DEAE-trisacryl column (DEAE […] M:IBF). By elution with a sodium chloride gradient (0 - 0.4 M), PDE types V and III were separated from the other isozymes. The supernatant fraction of 45% saturated ammonium sulfate was further mixed with ammonium sulfate to 65% saturation and salted out. The resulting precipitated fraction was similarly applied to the DEAE-trisacryl column and eluted by a sodium chloride gradient (0 - 0.4 M) so as to separate PDE type I.
The thus obtained PDE types V, III and I were measured for their activity in accordance with the method of Thompson et al. (Adv. Cyclic Nucleotide Res., 10, 69-72, 1979) and the method of Wells et al. (Biochim. Biophys. Acta, 384, 430-443, 1975). Specifically, a purified PDE sample was added to 50 mM Tris-HCl buffer solution (pH 7.5) containing 1 µM of substrate cGMP or cAMP (containing tritium-labelled cGMP or cAMP), 1 mM EGTA and 2 mM magnesium acetate. For PDE activity measurement, enzymatically produced 5' GMP or 5' AMP was further hydrolyzed into guanosine or adenosine with snake venom and separated from the substrate by means of an ion-exchange resin (Dowex 1-X2), followed by measuring with a scintillation counter. The activity of each test compound was determined as a percentage of the PDE activity measured when it was added as a dimethyl sulfoxide solution (DMSO) and its IC50 (50% inhibition concentration) was calculated by the probit method. The final concentration of DMSO was adjusted to be no more than 2% in consideration of the effect on PDE activity.

Row | IC50 (PDE type V) [µM] | IC50 (PDE type I) [µM] | SMILES
1 | 0.0038 | > 30 | CC(C)OC(=O)COc1cc2c(=O)c(Cc3cccnc3)cn3c4ccc(Br)cc4c(c1)c23 [Example 4, 10-bromo-2-i-propoxycarbonylmethyloxy-5-(3-pyridylmethyl)-4H-pyrido[3,2,1-jk]carbazol-4-one]
2 | 0.11 | > 30 | O=c1c(Cc2cccnc2)cn2c3ccc(Br)cc3c3cc(OCc4ccccc4)cc1c32 [Example 11, 2-benzyloxy-10-bromo-5-(3-pyridylmethyl)-4H-pyrido[3,2,1-jk]carbazol-4-one]
3 | 0.1 | > 100 | COc1cc2c(=O)c(C)cn3c4ccc(Br)cc4c(c1)c23 [Example 13, 10-bromo-2-methoxy-5-methyl-4H-pyrido[3,2,1-jk]carbazol-4-one]
4 | 0.1 | > 300 | Cc1cn2c3ccc(Br)cc3c3cc(O)cc(c1=O)c32 [Example 14, 10-bromo-2-hydroxy-5-methyl-4H-pyrido[3,2,1-jk]carbazol-4-one]
5 | 0.03 | > 100 | O=c1ccn2c3ccc(Br)cc3c3cc(O)cc1c32 [Example 20, 10-bromo-2-hydroxy-4H-pyrido[3,2,1-jk]carbazol-4-one]

Continued, compound first:

Row | SMILES | IC50 (PDE type V) [µM] | IC50 (PDE type I) [µM]
6 | O=c1c(Cc2cccnc2)cn2c3ccc(Br)cc3c3cc(O)cc1c32 [Example 2, 10-bromo-2-hydroxy-5-(3-pyridylmethyl)-4H-pyrido[3,2,1-jk]carbazol-4-one] | 0.1 | > 30
7 | CCOC(=O)COc1cc2c(=O)c(Cc3cccnc3)cn3c4ccc(Br)cc4c(c1)c23 [Example 5, 10-bromo-2-ethoxycarbonylmethyloxy-5-(3-pyridylmethyl)-4H-pyrido[3,2,1-jk]carbazol-4-one] | 0.0055 | > 30
8 | O=c1c(Cc2cccnc2)cn2c3ccc(Br)cc3c3cc(OCc4cccnc4)cc1c32 [Example 10, 10-bromo-5-(3-pyridylmethyl)-2-(3-pyridylmethyloxy)-4H-pyrido[3,2,1-jk]carbazol-4-one] | 0.059 | > 30
9 | Cc1cn2c3ccc(Br)cc3c3cc(OCC(=O)OC(C)C)cc(c1=O)c32 [Example 16] | 0.0017 | > 30
10 | CCOC(=O)COc1cc2c(=O)c(C)cn3c4ccc(Br)cc4c(c1)c23 [Example 17, 10-bromo-2-ethoxycarbonylmethyloxy-5-methyl-4H-pyrido[3,2,1-jk]carbazol-4-one] | 0.0035 | > 30
11 | CCCC(=O)COc1cc2c(=O)c(C)cn3c4ccc(Br)cc4c(c1)c23 [Example 18, 10-bromo-2-(2-oxopentyloxy)-5-methyl-4H-pyrido[3,2,1-jk]carbazol-4-one] | 0.015 | > 30
12 | COc1cc2c(=O)ccn3c4ccc(Br)cc4c(c1)c23 [Example 19, 10-bromo-2-methoxy-4H-pyrido[3,2,1-jk]carbazol-4-one] | 0.05 | > 10
13 | CC(C)(C)OC(=O)COc1cc2c(=O)ccn3c4ccc(Br)cc4c(c1)c23 [Example 21, 10-bromo-2-t-butoxycarbonylmethyloxy-4H-pyrido[3,2,1-jk]carbazol-4-one] | 0.0009 | > 30
14 | CC(C)OC(=O)COc1cc2c(=O)ccn3c4ccc(Br)cc4c(c1)c23 [Example 22, 10-bromo-2-i-propoxycarbonylmethyloxy-4H-pyrido[3,2,1-jk]carbazol-4-one] | 0.0008 | > 30
15 | CCOC(=O)COc1cc2c(=O)ccn3c4ccc(Br)cc4c(c1)c23 [Example 23, 10-bromo-2-ethoxycarbonylmethyloxy-4H-pyrido[3,2,1-jk]carbazol-4-one] | 0.002 | > 30
16 | O=C(O)COc1cc2c(=O)ccn3c4ccc(Br)cc4c(c1)c23 [Example 24, 10-bromo-2-carboxymethyloxy-4H-pyrido[3,2,1-jk]carbazol-4-one] | 0.19 | > 30
17 | O=c1ccn2c3ccc(Cl)cc3c3cc(Cl)cc1c32 [Example 48, 2,10-dichlor-4H-pyrido[3,2,1-jk]carbazol-4-one] | – | > 30
